Experimental data from PMC11589483, “Preparation and anti-colon cancer effect of a novel curcumin analogue (CA8): in vivo and in vitro evaluation” (Frontiers in Pharmacology, 2024).
Read-outs that look alike come from different tables or passages of the source.

Columns and labels:
[1] = system: Caco-2 cells; test: Apoptosis assay (Annexin V-FITC/propidium iodide flow cytometry); format: cell-based, human; settings: 4, 8, 16 μM, 24 h
Method: The apoptotic effect of CA8 was assessed in Caco-2 cells according to the kit instructions. First, Caco-2 cells were treated with CA8 at dose of 4, 8, or 16 μM/L for 24 h. The cells were harvested and suspended in 500 μL annexin-binding buffer. Subsequently, the cells were stained with Annexin V-FITC for 15 min and then incubated with propidium iodide for 5 min at room temperature in the dark. Finally, all samples were evaluated via flow cytometry (FACS Calibur, BD, San Jose, CA, United States). The results obtained were analyzed using the FlowJo software, and the apoptotic rate was calculated.

[2] = Solubility in water by HPLC; format: physicochemical; settings: 25°C, mass of solute dissolved at saturation in 100 g of solvent
Method: The solubility of the synthesized compounds in water was determined using high performance liquid chromatography (HPLC). First, 1.000 g of each compound was accurately weighed, placed in 100 g of water, and stirred at 25°C for a period of time. Then, the reaction system was allowed to stand for 1 h. The supernatant was quantitatively taken, diluted with methanol to volume, and centrifuged, and the solubility was determined using HPLC.

[3] = system: colon cancer cells Caco-2; test: MTT antiproliferative assay, Caco-2; format: cell-based, human; settings: for SI Caco2: logarithm of ratio IC50 LO2 / IC50 cancer cells; for IC50: Homo sapiens, read-out: IC50 Caco2
Method: (§1) The human cancer cell lines A549, HepG2, MCF-7, Caco-2, and HeLa and the normal human liver cell line LO2 were all obtained from Shanghai Cell Bank of China. All cells were cultured in RPMI 1640 or DMEM supplemented with 10% fetal bovine serum, 100 U/mL penicillin, and 100 μg/mL streptomycin and incubated at 37°C under 5% CO2 (HEPA incubator class100 Thermo company). The medium was replaced three times a week. Cells used in all were in the exponential growth phase.
(§2) The cell inhibition rate was evaluated using the MTT assay. Briefly, cells were seeded in a 96-well plate at a density of 3–4 × 10^3 cells per well and incubated at 37°C for 24 h. The MCACs to be tested were dissolved in dimethyl sulfoxide (DMSO, Merck, Germany) and diluted to five concentrations (3.75, 7.5, 15, 30, 60 μM/L) with RPMI 1640 medium, with each dose analyzed in quadruplicate. The concentration of DMSO was always maintained below 1‰, a concentration that is nontoxic to cells. After incubation for 24 or 48 h, MTT reagent (5 mg/mL) was added to each well and the samples were incubated for 3 h at 37°C in the dark. The absorbance of formazan crystals dissolved in 150 µL of DMSO was measured at 570 nm using a microplate reader to identify the cytotoxic effect of the analogues.

[4] = system: Caco-2 xenograft tumors; test: In vivo anticancer activity, Caco-2 xenograft
Method: Twenty 5-week-old male BALB nude mice purchased from SPF (Beijing) Biotechnology Co., Ltd. were used for the in vivo pharmacodynamic experiment of CA8. Caco-2 cells (6 × 10^6 cells in 100 μL PBS) were harvested and subcutaneously injected into the right hip of the mice. Then, they were divided into four groups when the tumor volume reached 100 mm^3 and treated with saline, CU (100 mg/kg), tegafur (50 mg/kg), or CA8 (100 mg/kg) via gavage every other day. Tumor size and body weight were measured and recorded every other day. At the end of the experiment, the mice were sacrificed and tumors were harvested and weighed. Tumor volumes were calculated by measuring length (L) and width (W) according to the following formula: V = 0.5 × L × W^2. The tumor tissue was embedded in paraffin, cut into slices, stained with HE, and observed under a light microscope.

[5] = system: Caco-2 cells; test: Hoechst 33,258 staining; format: cell-based, human; settings: Caco-2, 24 h
Method: Caco-2 cells were seeded in 6-well plates at a density of 5 × 10^5 cells per well and incubated overnight, followed by the addition of the prescribed concentration (4, 8, or 16 μM/L) of CA8. After 24 h of incubation, cells were fixed and stained with Hoechst 33,258.

[6] = system: lung cancer cells A549; test: MTT antiproliferative assay, A549; format: cell-based; settings: Homo sapiens
Method: as §1, §2

[7] = system: AKT, JNK, and NF-κB signaling pathways and apoptosis-related proteins; test: Western blot of signaling and apoptosis proteins in Caco-2 cells; format: cell-based, human; settings: 24 h
Method: The expression of apoptotic proteins and pathways was detected using western blot. Caco-2 cells treated with CA8 at a dose of 4, 8, or 16 μM/L for 24 h were collected and lysed with RIPA lysis buffer for 10 min. The concentration of total proteins was determined using a BCA protein quantitative kit. Total proteins were separated on an SDS-PAGE gel, transferred to PVDF membranes and incubated with 5% skim milk for 2 h. Subsequently, the PVDF membranes were incubated with primary antibodies (AKT 1:2000; Bcl-2 1:2000; Bax 1:5000; caspase-3 1:2,000; caspase-9 1:1000; P-AKT 1:1000; JNK 1:1000; P-JNK 1:1000; IKBα 1:2000; and β-actin 1:100000) at 4°C overnight. The membranes were rinsed three times with TBST and incubated with secondary antibodies (1:5000 dilution) for 2–3 h at room temperature. Finally, proteins were visualized using an ECL chemiluminescent kit (KF001, affinity). In the final step, the ImageJ software was used to analyze the results.

[8] = system: Ki67; test: Immunohistochemistry of tumor tissue; format: in vivo, BALB nude mice; settings: Caco-2 xenograft, 100 mg/kg
[9] = Caco-2, 4, 8, 16 μM, vs control

Q: Which “induction of apoptosis” value [1] does the source give for COc1cc(/C=C2\CN(C(C)C)C/C(=C\c3cc(OC)c(O)c(OC)c3)C2=O)cc(OC)c1O [CA8] here?
A: induced more apoptosis than CU at high and medium concentrations

Q: What about the Solubility [2] of the same compound?
A: 403.44 mg/100g

Q: And the “SI Caco2” value ([3]; 24 h)?
A: 0.02

Q: And the “cytotoxicity on Caco-2 cells compared with CU” value ([3]; 48 h)?
A: 19.2 times

Q: What about the “SI Caco2” value ([3]; 48 h) of the same compound?
A: 0.07

Q: What about the IC50 ([3]; Caco-2, 24 h) of the same compound?
A: 4.06 ± 0.89 µM

Q: And the IC50 ([3]; Caco-2, 48 h)?
A: 1.71 ± 0.06 µM

Q: What about the tumor inhibition rate ([4]; Caco-2 xenograft nude mice, 100 mg/kg via gavage every other day) of the same compound?
A: 63.93%

Q: And the “HE staining of tumor mass” value ([4]; Caco-2 xenograft, 100 mg/kg)?
A: large necrotic area in the tumor mass

Q: And the “inhibitory effect on tumor growth” value ([4]; Caco-2 xenograft, CA8 100 mg/kg, CU 100 mg/kg, tegafur 50 mg/kg, gavage every other day)?
A: more significant inhibitory effect on tumor growth than CU and tegafur

Q: What about the “body weight change / toxicity during therapy” value ([4]; nude mice, 13 days of therapy, 100 mg/kg gavage) of the same compound?
A: did not lead to a significant toxicity

Q: What about the “nuclear morphology / apoptotic cells” value [5] of the same compound?
A: many apoptotic cells were observed

Q: What about the IC50 ([6]; A549, 24 h) of the same compound?
A: 5.66 ± 0.25 µM

Q: And the IC50 ([6]; A549, 48 h)?
A: 9.31 ± 1.08 µM

Q: And the “expression of Bax, caspase-3, and caspase-9” value ([7]; Caco-2, 4, 8, 16 μM)?
A: increased in a concentration-dependent manner

Q: And the “expression of P-AKT” value [7, 9]?
A: inhibited the expression of P-AKT

Q: What about the “expression of P-JNK and IκBα” value [7, 9] of the same compound?
A: induced the expression of P-JNK and IκBα in a concentration-dependent manner

Q: What about the “expression of anti-apoptotic protein BCL-2” value ([7]; Caco-2, high concentration) of the same compound?
A: significantly inhibited

Q: What about the “expression of Ki67 in tumor tissues” value [8] of the same compound?
A: significantly reduced the expression of Ki67
